Results on 1 molecule are retold here after patent EP4818330A1, “PHARMACEUTICAL PREPARATION FOR DIAGNOSING AND TREATING ALZHEIMER'S DISEASE” (Shanghai East Hospital Tongji University, priority 2023, dated 2025).

Assay [1] relates to 293T cell line. Nature of the assay: CCK8 cell viability (toxicity) assay in 293T cell line. It is filed as cell-based. The note with it: Homo sapiens, HEK-293T; CCK8 toxicity test, 293T cell line. From the text:
(§1) The CCK8 cell viability assay (CCK8) was adopted. Its principle is mainly based on the reduction reaction of WST-8 (chemical name: 2-(2-methoxy-4-nitrophenyl)-3-(4-nitrophenyl)-5-(2,4-disulfophenyl)-2H-tetrazolium monosodium salt). In the presence of living cells, WST-8 can be reduced by dehydrogenases in mitochondria to generate a highly water-soluble orange-yellow formazan product. The color intensity is directly proportional to the number of living cells, wherein the quantity of living cells can be indirectly reflected by measuring the absorbance of formazan products (typically at a wavelength of 450 nm). The CCK-8 assay is widely used in cell proliferation assay, cytotoxicity assay and tumor drug sensitivity test.
In in vitro experiments, the compound stock solution was prepared into 10 mM with DMSO and diluted with a culture medium before use. The 293T cell line was used for preliminary concentration screening of the compound, wherein concentration gradients were set as follows: 5 µmol, 10 µmol, 20 µmol, 40 µmol, 80 µmol and 160 µmol. After the cells were treated with the compound for 24 h, the CCK8 detection kit was used, wherein the cell viability was calculated based on the absorbance values detected by a microplate reader. Data processing was performed using GraphPad Prism software to plot the IC50 curve.

The subject of assay [2] is primary neurons. Nature of the assay: CCK8 cell viability (toxicity) assay in primary neurons. It is filed as cell-based, mouse. The settings on record: Mus musculus, Primary neuron, CCK8 toxicity test.
Text: as §1
Primary hippocampal neuron culture: After ICR fetal mice at 18-21 days of gestation (E18-E21) were anesthetized, the fetal mice were dissected in a clean area and immersed in 75% ethanol for 1-2 min. The mouse head was taken out, the surface skull was removed with micro-scissors, and the brain tissue was transferred to an anatomical dissociation solution. Under a microscope, blood vessels and meninges were removed, hippocampal tissue was isolated, the extracted hippocampal tissue was placed in a 3.5 cm dish containing the anatomical dissociation solution, and the hippocampal tissue was cut into small fragments using micro-scissors. The minced hippocampal tissue was transferred to a 7 ml EP tube using a pipette gun. The hippocampal tissue hereinabove was centrifuged at 1000 rpm for 3-5 min, and the anatomical separation solution was discarded. 0.5-1 ml of papain digestion solution was added to the EP tube hereinabove, and the EP tube was placed in a 37°C incubator for 30 min. 300 µL of Trituration buffer 300 (DNase) and 5 mL of complete medium were added, and the hippocampal tissue was gently pipetted more than 10 times. The cell suspension was allowed to stand for 3 min, and 3-4 ml of supernatant was gently aspirated into a 15 ml tube using a pipette. 3-4 ml of complete medium was added again, and the hippocampal tissue was gently pipetted more than 10 times. Step 8 was repeated, and 3-4 ml of supernatant was transferred to the same 15 ml tube again. The previous step was repeated again. The collected supernatant was centrifuged at 1000 rpm, the supernatant was discarded, and 5 ml of complete medium was added. The mixture was gently pipetted and suspended, and then centrifuged again at 1000 rpm for 5 min. The complete medium was added to resuspend the cells, and then a portion of the cells was aspirated for counting. Generally, when neuronal cells were planted in a 24-well plate, the concentration of the cell suspension was generally 2×10^5/ml, and 500 µl of cells is inoculated per well. The resuspended neuron cells with a diluted ratio were seeded onto a glass slide treated with PDL, then the glass slide was placed in a 37°C incubator for 10 min, an appropriate amount of complete medium was added, and then the culture is continued in the incubator.

Take `O=C(NC1CN(c2ccncn2)CC1CO)c1ccc2ncccc2c1` (centres unmarked) [compound of Formula II, N-[4-(HYDROXYMETHYL)-1-(PYRIMIDIN-4-YL)PYRROLIDIN-3-YL]QUINOLINE-6-CARBOXAMIDE]: the IC50 was found to be 38.6 µM in assay [1] and 1.67 µM in assay [2].
